The record followed here is PubChem BioAssay (NCI).

The structures appear in SMILES notation.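 Growth conditions: 96-well plates. Treatment: test compound, 48 hours, 5 concentrations. Analysis: linear interpolation between bracketing concentrations; unreached endpoints set to highest concentration. GI50 = concentration required for 50% inhibition of growth. The concentration for full growth arrest is given as TGI.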

Test systems include U251 CNS; UACC-257 melanoma; RXF 393 renal; OVCAR-5 ovarian; SF-539 CNS; HCT-15 colon; NCI-H460 lung; 786-0 renal; MOLT-4 leukemia.
Experiment in all cases: growth of human tumour cells (NCI), 48 h

Turning to `CC(C)(N)C(=O)N[C@@H]1C(=O)N2[C@@H]1SC(C)(C)[C@@H]2C(=O)O`, the TGI in the test on U251 CNS, in the test with UACC-257 melanoma, in the test on RXF 393 renal, in the test with OVCAR-5 ovarian, with SF-539 CNS and in the test with HCT-15 colon was above 100 µM each time. The TGI in the test with NCI-H460 lung and in the test with 786-0 renal was above 100 µM throughout.
With `O=C(O)C1C2CCC(O2)C1C(=O)NCc1cccnc1` (stereo unspecified), the TGI in the test on U251 CNS, in the test with UACC-257 melanoma, in the test on RXF 393 renal, in the test on OVCAR-5 ovarian, in the test on SF-539 CNS and in the test with HCT-15 colon was above 100 µM each time. The TGI in the test on NCI-H460 lung and in the test with 786-0 renal was above 100 µM each time.
As to `C=C1CCC2(C(C)=O)COC1(C)O2` (stereo unspecified), the TGI in the test with U251 CNS is above 100 µM; in the test with UACC-257 melanoma, above 100 µM; in the test on RXF 393 renal, above 10 µM; with SF-539 CNS, above 100 µM; in the test with MOLT-4 leukemia, above 100 µM; with HCT-15 colon, above 100 µM. For the same molecule, the TGI in the test with NCI-H460 lung and with 786-0 renal was above 100 µM in each case.
Turning to `CCOC(=O)CP(=S)(S)c1ccccc1` (stereo unspecified), the TGI in the test on U251 CNS, with UACC-257 melanoma, in the test on RXF 393 renal, in the test on OVCAR-5 ovarian, in the test on SF-539 CNS and in the test with MOLT-4 leukemia was above 100 µM in each case. In addition, the TGI with NCI-H460 lung and in the test on 786-0 renal was above 100 µM in each case.
Consider `O=C(O)c1c[nH]c2c(ccc3[nH]cc(C(=O)O)c(=O)c32)c1=O`, for which the TGI in the test on U251 CNS, with UACC-257 melanoma, in the test with RXF 393 renal, with OVCAR-5 ovarian, with SF-539 CNS and with MOLT-4 leukemia was above 100 µM in each case. The TGI in the test with HCT-15 colon, with NCI-H460 lung and with 786-0 renal was above 100 µM in each case.
Regarding `NCCCCCCCCCn1c2c(c3ccccc3c1=O)C(=O)c1ccccc1-2`, the GI50 is 9.52 µM with U251 CNS; 10.1 µM in the test on UACC-257 melanoma; 10.2 µM in the test with RXF 393 renal; 9.6 µM in the test with OVCAR-5 ovarian; 9.83 µM in the test on SF-539 CNS; 4.1 µM with MOLT-4 leukemia. Further, the GI50 was 6.03 µM in the test with HCT-15 colon, 2.8 µM with NCI-H460 lung and 7.72 µM in the test with 786-0 renal. In addition, the TGI in the test on U251 CNS was determined as 19.1 µM; with UACC-257 melanoma it was 22.7 µM; in the test with RXF 393 renal it was 24.3 µM; with OVCAR-5 ovarian, 19.5 µM; in the test on SF-539 CNS, 19.3 µM; in the test on MOLT-4 leukemia, 40.4 µM. For the same molecule, the figures for the TGI with HCT-15 colon, in the test on NCI-H460 lung and with 786-0 renal were 16.2 µM, 14.2 µM and 15.9 µM, respectively.
Consider `O=C1c2ccccc2-c2ccccc2C1(Cl)Cl`, for which the GI50 was 0.314 µM in the test on U251 CNS; 0.203 µM in the test on UACC-257 melanoma; 1.78 µM with RXF 393 renal; 1.71 µM with SF-539 CNS; 2.19 µM in the test on MOLT-4 leukemia; 1.81 µM in the test with HCT-15 colon. Further, the GI50 is 1.91 µM with NCI-H460 lung and 2.11 µM in the test with 786-0 renal. The TGI in the test with U251 CNS was 1.07 µM; in the test on UACC-257 melanoma, 0.476 µM; in the test with RXF 393 renal it was 3.2 µM; in the test with SF-539 CNS, 3.23 µM; with MOLT-4 leukemia, 7.09 µM; in the test on HCT-15 colon, 4.25 µM. The values for the TGI with NCI-H460 lung and in the test on 786-0 renal were 3.97 µM and 4.16 µM, respectively.
Take `c1ccc(N2N=NC3C4CC(C5c6ccccc6C45)C32)cc1` (stereo unspecified): the TGI with U251 CNS is above 100 µM; in the test on UACC-257 melanoma it was 76.4 µM; in the test on RXF 393 renal it was 44.1 µM; with OVCAR-5 ovarian it was above 100 µM; in the test on SF-539 CNS, above 100 µM; in the test on MOLT-4 leukemia, 73.4 µM. In addition, the TGI in the test with HCT-15 colon, in the test with NCI-H460 lung and in the test with 786-0 renal was above 100 µM throughout.
In the case of `O=[N+]([O-])c1cccc([I+]c2ccccc2)c1`, the GI50 with U251 CNS was 6.39 µM; in the test with UACC-257 melanoma, 12.1 µM; with OVCAR-5 ovarian, 17.7 µM; in the test on SF-539 CNS it was 10.8 µM; in the test on MOLT-4 leukemia it was 3.4 µM; in the test on HCT-15 colon, 5.35 µM. In addition, the GI50 was 3.56 µM with NCI-H460 lung and 13 µM in the test on 786-0 renal. Also, the TGI in the test with U251 CNS is 20.3 µM; with UACC-257 melanoma, 28 µM; in the test on OVCAR-5 ovarian, 38.4 µM; in the test on SF-539 CNS it was 24.3 µM; in the test with MOLT-4 leukemia, 39 µM; in the test with HCT-15 colon, 30.1 µM. For the same molecule, the TGI in the test with NCI-H460 lung turned out to be 25.3 µM; with 786-0 renal it was 29.9 µM.
Consider `Cn1c2c(c3ccccc31)CCN(CCCN1CCN(c3ccccc3)CC1)C2=O`, for which the TGI in the test on U251 CNS was 30.2 µM; in the test with RXF 393 renal, 32.6 µM; with SF-539 CNS, 31.7 µM; in the test on MOLT-4 leukemia, 36.7 µM; with HCT-15 colon it was 50 µM; in the test on 786-0 renal, 39.1 µM.
